Like-named read-outs stand apart in the source and are kept apart here.
How the values were obtained:
[1] = Thermostability of vinorelbine monotartrate solid forms at 5° C., 25° C. and 40° C. (degradation impurities by HPLC); format: physicochemical; conditions: for Degradation products (%) 3,6-epoxy vinorelbine / Degradation products (%) Total / Degradation products (%) vinorelbine N-oxide: amorphous form, 40° C.
Protocol: (§1) The degradation impurities are determined after a specific amount of time of incubation by means of HPLC.
(§2) The term “degradation impurities”, as used herein, is to be understood such a sample of the relevant product is subjected to HPLC analysis and calculation of the content of impurities in Vinorelbine is performed according to the method described in European Pharmacopoeia 7.0.
The term “degradation”, as used herein, is to be understood to relate to the total amount of identified (e.g. 3,6-epoxy vinorelbine, 4-O-deacetylvinorelbine and vinorelbine N-oxide) and unidentified degradation products that form in a sample after a particular incubation period.
(§3) HPLC analysis and calculation of the content of impurities in Vinorelbine were performed according to the method described in European Pharmacopoeia 7.0.
Three further representative batches of crystalline vinorelbine monotartrate acetone solvate being produced according to Example 1 were analyzed for stability (i.e. batches no. 011213, no. 021213, and no. 010414). The samples were exposed to temperatures of 5° C. and 25° C. for three and six months, respectively. Batch no. 010414 was also exposed to a temperature of 40° C. (at 60%±2% relative humidity) for 15 days, 1 month, and two months, respectively.
Crystalline vinorelbine monotartrate hydrate being produced according to Example 5 were analyzed for stability. The samples were exposed to temperatures of 25° C. and 40° C. for three and six months, respectively.
In order to evaluate the thermostability and photostability of the compound the sample was exposed to a temperature of 40° C. for 2 weeks analyzed by HPLC.

[2] = Comparable stressing stability study at 60° C. (total degradation impurities by HPLC); format: physicochemical; conditions: for Total degradation impurities: 60° C.
Protocol: as §1, §2, §3

[3] = xenon lamp 300-800 nm
Protocol: The term “photostability”, as used herein, is to be understood such that a sample of the product to be analyzed in a quantity of about 14 mg is placed in a 10 ml light glass volumetric flask and is exposed in a photo chamber to a xenon lamp (wave length 300-800 nm; fluence rate 250-765 W/m2). The amount of the known photo-degradation product 3,6-epoxy vinorelbine is determined after a specific amount of time of exposure by means of HPLC (High-performance liquid chromatography). The described photostability test procedure corresponds to the photostability determining method described in European Pharmacopoeia 7.0 using exposure time 2 hours.
Furthermore, a comparative photo-degradation analysis of crystalline vinorelbine monotartrate hydrate, according to the present invention and vinorelbine bitartrate was performed.
The samples (about 14 mg each) were placed in 10 ml light glass volumetric flasks and exposed in a photo chamber to a xenon lamp (wave length 300-800 nm; fluence rate 250-765 W/m^2). The amount of the known photo-degradation product 3,6-epoxy vinorelbine was determined at various time points by means of HPLC.

| Molecule | Total degradation impurities ([2]; 1 week) | Photodegradation product (3,6-epoxy vinorelbine), % ([3]; exposure 0 min) [%] | Total impurities (excluding photodegradation product), % ([3]; exposure 0 min) [%] | Photodegradation product (3,6-epoxy vinorelbine), % ([3]; exposure 15 min) [%] | Total impurities (excluding photodegradation product), % ([3]; exposure 15 min) [%] | Photodegradation product (3,6-epoxy vinorelbine), % ([3]; exposure 30 min) [%] | Total impurities (excluding photodegradation product), % ([3]; exposure 30 min) [%] | Photodegradation product (3,6-epoxy vinorelbine), % ([3]; exposure 60 min) [%] | Total impurities (excluding photodegradation product), % ([3]; exposure 60 min) [%] | Photodegradation product (3,6-epoxy vinorelbine), % ([3]; exposure 120 min) [%] | Total impurities (excluding photodegradation product), % ([3]; exposure 120 min) [%] | further results |
| --- | --- | --- | --- | --- | --- | --- | --- | --- | --- | --- | --- | --- |
| vinorelbine monotartrate acetone solvate | LT 0.05% |  |  |  |  |  |  |  |  |  |  | degradation (in words) ([1]; six months storage at 5° C.+3° C.): almost no degradation; degradation (in words) ([1]; six months storage at 25° C.±2° C.): almost no degradation; degradation (in words) ([1]; two months storage at 40° C.): only minimal degradation; Total degradation impurities ([2]; 3 weeks): 0.08%; Total degradation impurities ([2]; 8 weeks): 0.24%; chemical degradation (in words) ([2]; one week storage at 60° C.): didn't show any chemical degradation |
| vinorelbine monotartrate hydrate |  | 0.03 | 0.10 | 0.08 | 0.10 | 0.14 | 0.10 | 0.28 | 0.10 | 0.44 | 0.17 | overall accumulation of degradation impurities ([1]; after 6 months at 25° C.): ≤ 0.02%; overall accumulation of degradation impurities ([1]; after 6 months at 40° C.): ≤ 0.15%; thermostability, degradation ([2]; one week storage at 60° C.): less than 0.10% |
| vinorelbine monotartrate [amorphous vinorelbine monotartrate] |  |  |  |  |  |  |  |  |  |  |  | Degradation products (%) 3,6-epoxy vinorelbine ([1]; 15 days): 0.13%; Degradation products (%) Total ([1]; 15 days): 1.08%; Degradation products (%) vinorelbine N-oxide ([1]; 15 days): 0.33%; Degradation products (%) 3,6-epoxy vinorelbine ([1]; initial): LT 0.05%; Degradation products (%) Total ([1]; initial): 0.13%; Degradation products (%) vinorelbine N-oxide ([1]; initial): LT 0.05%; stability (in words) ([1]; exposure to elevated temperature and humidity for an extended period): unstable; degradation (in words) ([1]; incubation for two weeks at 40° C.): significant degradation |
| CCC1=C[C@@H]2CN(C1)Cc1c([nH]c3ccccc13)[C@@](C(=O)OC)(c1cc3c(cc1OC)N(C)[C@H]1[C@@](O)(C(=O)OC)[C@H](OC(C)=O)[C@]4(CC)C=CCN5CC[C@]31[C@@H]54)C2.O=C(O)C(O)C(O)C(=O)O.O=C(O)C(O)C(O)C(=O)O [vinorelbine bitartrate, reference compound] | 9.8% | 0.05 | 0.10 | 0.16 | 0.10 | 0.24 | 0.16 | 0.35 | 0.20 | 0.72 | 0.27 |  |

— patent US20190092792A1, “VINORELBINE MONOTARTRATE AND ITS PHARMACEUTICAL USE” (priority 2016, published 2019)
